The text below walks through data of patent publication US20240269157A1, “COMPOSITIONS AND METHODS FOR OVERCOMING MICROENVIRONMENT-MEDIATED RESISTANCE VIA E-SELECTIN TARGETING” (GLYCOMIMETICS, INC., priority 2021, published 2024).

Structures are written as SMILES.

In assay [1] the test system is KG1 AML tumor cells. Put plainly: KG1 AML mouse model survival. The assay is classed as in vivo, NSG mice. The settings on record: for median survival time (MST): Compound A 40 mg/kg i.p. qdx14, 5-azacitidine 5 mg/kg i.p. q3dx5. The method, then:
A KG1 AML mouse model was also employed to determine whether the E-selectin antagonist Compound A could enhance the anti-tumor effect of 5-azacitidine. Female NSG mice (10 per cohort, six weeks of age) received i.v. injections of 5×10^6 KG1 AML tumor cells per mouse. Beginning 7 days post injection, mice were randomized into four cohorts and treated with either saline (i.p. (intraperitoneal), qdx14 (once daily for 14 days)), Compound A (40 mg/kg i.p. qdx14), 5-azacitidine (5 mg/kg i.p. q3dx5), or a combination of Compound A and 5-azacitidine. The efficacies of the treatments on survival were determined by the Kaplan-Meier estimator and log-rank statistics were used to test for significant differences in survival (FIG. 11). The median survival time (MST) of mice treated with 5-azacitidine was 88 days and statistically different from that of mice treated with saline (MST=69.5 days) or Compound A alone (MST=69 days). […] At study conclusion, (day 104 post tumor injection) 20% of mice treated with 5-azacitidine remained alive.

In assay [2] the target is T1, recombinant human E-selectin-Fc chimera (Homo sapiens, UniProt P16581).
T1 construct: purchased R&D Systems 724-ES
T1 sequence (P16581 with tags, fused parts or gaps limits assumed): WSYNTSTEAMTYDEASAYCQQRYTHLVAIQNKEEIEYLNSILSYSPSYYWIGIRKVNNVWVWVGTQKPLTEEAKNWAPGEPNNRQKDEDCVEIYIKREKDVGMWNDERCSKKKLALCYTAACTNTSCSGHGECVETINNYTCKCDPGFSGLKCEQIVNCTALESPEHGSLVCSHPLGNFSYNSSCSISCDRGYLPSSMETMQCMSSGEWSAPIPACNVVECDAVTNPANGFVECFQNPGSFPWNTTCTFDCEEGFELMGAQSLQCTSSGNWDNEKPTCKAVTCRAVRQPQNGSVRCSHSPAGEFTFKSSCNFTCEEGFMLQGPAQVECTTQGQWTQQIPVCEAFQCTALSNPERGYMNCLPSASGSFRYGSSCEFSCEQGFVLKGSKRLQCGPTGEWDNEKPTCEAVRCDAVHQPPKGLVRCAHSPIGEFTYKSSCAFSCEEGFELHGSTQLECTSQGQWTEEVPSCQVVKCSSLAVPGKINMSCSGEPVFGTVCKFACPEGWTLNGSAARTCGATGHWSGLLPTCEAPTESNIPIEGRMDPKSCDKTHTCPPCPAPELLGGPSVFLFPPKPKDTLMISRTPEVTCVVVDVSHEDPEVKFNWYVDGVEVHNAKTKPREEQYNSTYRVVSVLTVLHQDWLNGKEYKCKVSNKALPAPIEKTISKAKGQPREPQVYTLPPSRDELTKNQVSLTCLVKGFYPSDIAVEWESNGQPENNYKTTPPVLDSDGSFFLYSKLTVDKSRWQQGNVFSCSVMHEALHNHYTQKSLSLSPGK
Briefly: Adhesion of KG1 AML cells to E-selectin in vitro. The format is cell-based. The method, then:
To further explore this hypothesis, the ability of Compound A to disrupt adhesion of KG1 AML cells to E-selectin was assessed using an in vitro assay. Recombinant human E-selectin-Fc chimera was purchased from R&D Systems (724-ES). KG1 AML cell line was purchased from ATCC (CRL-8031) and cultured in RPMI-1640 medium supplemented with 10% fetal bovine serum (FBS). Costar 96-well polystyrene medium binding assay plates were purchased from Corning (9017). 5-azacitidine (5-AZA) was purchased from Sigma-Aldrich (A2386). Calcein AM was purchased from Molecular Probes (C3100MP). FITC-conjugated antibody reactive with cutaneous lymphocyte antigen (HECA-452-FITC) was purchased from BD Pharmingen (555947).
The wells of a 96-well polystyrene plate were coated with 100 μL of 2 μg/mL recombinant human E-selectin-Fc chimera for 2 hours at 37° C., and then washed three times with Hank's Balanced Saline Solution (HBSS). KG1 cells were fluorescently labeled in culture medium with 3 μM Calcein AM for 60 minutes at 37° C., pelleted by centrifugation at 250×g for 10 minutes, then resuspended in HBSS to 2.5×10^5 cells per mL. Next, 2.5×10^4 cells were added to each well, and the cells were allowed to adhere for 45 minutes at room temperature. In some cases, cells were treated daily with 100 nM 5-azacitidine for 96 hours prior to labeling with Calcein AM and adhesion to E-selectin. Appropriate wells received 1 μL of 10 mM Compound A (final concentration in well: 100 μM) and after 30 minutes the wells were observed by fluorescence microscopy and pre-wash fluorescence measurements were taken using a FlexStation plate reader (excitation 485 nm, emission 538 nm, cutoff 530 nm). Subsequently, the wells were washed gently three times with HBSS and observations by fluorescence microscopy and fluorescence readings were repeated.

Assay [3] has as its target T2, E-selectin (Homo sapiens, UniProt P16581).
T2 sequence (P16581 22-610): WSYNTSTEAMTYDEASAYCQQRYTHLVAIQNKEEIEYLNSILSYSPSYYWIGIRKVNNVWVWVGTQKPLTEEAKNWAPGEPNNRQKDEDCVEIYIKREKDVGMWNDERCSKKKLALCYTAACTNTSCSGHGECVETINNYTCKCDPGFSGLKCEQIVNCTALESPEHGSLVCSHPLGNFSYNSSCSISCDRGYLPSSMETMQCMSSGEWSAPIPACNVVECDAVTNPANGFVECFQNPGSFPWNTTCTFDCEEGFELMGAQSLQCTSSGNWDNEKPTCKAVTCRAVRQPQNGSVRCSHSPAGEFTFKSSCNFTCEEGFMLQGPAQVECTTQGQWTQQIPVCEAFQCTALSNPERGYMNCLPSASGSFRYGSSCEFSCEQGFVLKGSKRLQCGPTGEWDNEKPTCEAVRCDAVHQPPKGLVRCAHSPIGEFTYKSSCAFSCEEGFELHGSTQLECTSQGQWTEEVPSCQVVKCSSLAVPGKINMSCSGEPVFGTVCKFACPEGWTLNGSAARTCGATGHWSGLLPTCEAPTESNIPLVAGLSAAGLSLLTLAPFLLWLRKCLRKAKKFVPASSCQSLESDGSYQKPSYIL
Put plainly: Compound A binding to E-selectin (KD).

The subject of assay [4] is PDX-AML (Ven/HMA-resistant). Briefly: PDX-AML (Ven/HMA-resistant) model, FLT3-ITD, NRAS, GATA2 mutations. The assay is classed as in vivo, NSG mice. The text has this:
To evaluate the efficacy of targeting E-selectin with Compound A to selectively eradicate leukemia cells resistant to venetoclax/HMA therapy in the bone marrow niche, an […] PDX-AML model derived from an AML patient harboring FLT3-ITD, NRAS, and GATA2 mutations who initially responded to venetoclax/HMA therapy and then relapsed was employed (FIG. 1). The model reflects the present situation for many elderly AML patients: initial sensitivity, followed by resistance to venetoclax/HMA and relapse.
Patient-derived PDX cells from an AML patient (2.5×10^6 cells/mouse) were transplanted via tail vein into NSG mice. Once AML cells began to engraft, mice were divided into four groups: vehicle treatment only; 40 mg/kg of Compound A; 50 mg/kg venetoclax+5.5 mg/kg 5-azacitidine; and a combination of 40 mg/kg Compound A and 50 mg/kg venetoclax+5.5 mg/kg 5-azacitidine. Drug treatment was performed from day 60 to day 82 post-transplantation.
Leukemia progression and tumor burden were evaluated weekly during the treatment period (for 22 days) by determining the frequency and absolute number of human CD45^+ cells in peripheral blood using flow cytometry analysis. The synergistic effects of the combinatorial treatment on AML-PDX mouse survival were determined by Kaplan-Meier analysis (FIG. 2). […] The median survival of the vehicle control, Compound A, venetoclax/HMA, and combination-treated (Compound A+venetoclax/HMA) groups of mice was 86, 91, 81.5, and 106.5 days, respectively.
At the time when all of the control group of mice were moribund (after 23 days of treatment), 3 mice per group were sacrificed for single cell proteomics (CyTOF) and immunohistochemistry analysis.

`Nc1ncn([C@@H]2O[C@H](CO)[C@@H](O)[C@H]2O)c(=O)n1` [5-azacitidine]: the “median survival time (MST)” value in assay [1] was determined as 88 days. The “mice remaining alive at study conclusion” value in assay [1] (day 104 post tumor injection) stood at 20%. In addition, the “increase in adhesion to E-selectin” value in assay [2] (100 nM 5-AZA 96 hours vs not treated) came out at 57%. Also, the “fluorescence units of adhered cells” value in assay [2] (KG1 cells treated for 96 hours with 100 nM 5-AZA) turned out to be 560.6 fluorescence units.

One may read the Kd as the free concentration of one partner at which half of the binding sites on the other are occupied at equilibrium, for simple one-to-one binding. A low value points to higher affinity. Take `CCC1CC(C(=O)NCCNC(=O)CCOCCOCCOCCOCCOCCOCCOCCOCCOCCOCCOCCOC)C[C@@H](O[C@@H]2OC(CO)[C@H](O)C(O[C@@H](CC3CCCCC3)C(=O)O)C2NC(C)=O)[C@@H]1OC1O[C@@H](C)[C@H](O)C(O)[C@@H]1O` (stereo partly drawn) [Compound A]: the outcome of mice in assay [1] (All mice treated) was “succumbed to progressive tumor growth”. Moreover, in assay [1], the “median survival time (MST)” value is 69 days. The Kd in assay [3] was approximately 450 nM. Besides, in assay [2] (100 μM Compound A, 30 minutes, p=0.001), the “fluorescence units after treatment of previously attached cells” value came out at 55.2 fluorescence units. For the same molecule, in assay [4] (40 mg/kg Compound A, 50 mg/kg venetoclax+5.5 mg/kg 5-azacitidine, day 60 to 82), the median survival came out at 91 days. Also, in assay [4] (CyTOF, in vivo administration), the “anti-leukemia efficacy of venetoclax/HMA” value is given as “enhanced”. In assay [4] (histology, Compound A only compared to normal control mice), the “leukemia cell infiltration in bone marrow, spleen, lung, and liver” value is “increased”. In addition, the “mobilization of human AML cells” value in assay [4] (mouse, in vivo) is on record as “mobilized”.
